Results reported in PubChem BioAssay (NCI).
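Step 1: Grow cells in 96-well plates. Step 2: Expose to compound for 48 hours at 5 concentrations. Step 3: Interpolate endpoints linearly; if unreached, use highest concentration. Definition used: TGI = concentration required for complete inhibition of growth.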

What was measured:
Test in all cases: NCI-60 cell line screen, 48 h
CAKI-1 renal = tested on: CAKI-1 renal
EKVX NSCLC = tested on: EKVX NSCLC
SK-MEL-2 melanoma = tested on: SK-MEL-2 melanoma
A549 NSCLC = tested on: A549 NSCLC
TK-10 renal = tested on: TK-10 renal
SK-MEL-28 melanoma = tested on: SK-MEL-28 melanoma
M14 melanoma = tested on: M14 melanoma
MALME-3M melanoma = tested on: MALME-3M melanoma
RXF 393 renal = tested on: RXF 393 renal
NCI-H522 lung = tested on: NCI-H522 lung
UACC-257 melanoma = tested on: UACC-257 melanoma
PC-3 prostate = tested on: PC-3 prostate
SW-620 colon = tested on: SW-620 colon
K-562 leukemia = tested on: K-562 leukemia
U251 CNS = tested on: U251 CNS
BT-549 breast = tested on: BT-549 breast
NCI-H460 lung = tested on: NCI-H460 lung
IGROV1 ovarian = tested on: IGROV1 ovarian
SR leukemia = tested on: SR leukemia
SN12C renal = tested on: SN12C renal
HS 578T breast = tested on: HS 578T breast
HL-60(TB) leukemia = tested on: HL-60(TB) leukemia
OVCAR-8 ovarian = tested on: OVCAR-8 ovarian
MOLT-4 leukemia = tested on: MOLT-4 leukemia
OVCAR-4 ovarian = tested on: OVCAR-4 ovarian
MDA-MB-435 = tested on: MDA-MB-435
CCRF-CEM leukemia = tested on: CCRF-CEM leukemia
MDA-MB-231 breast = tested on: MDA-MB-231 breast
HCT-15 colon = tested on: HCT-15 colon
UO-31 renal = tested on: UO-31 renal
A498 renal = tested on: A498 renal
COLO 205 colon = tested on: COLO 205 colon
T-47D breast = tested on: T-47D breast
NCI-H23 lung = tested on: NCI-H23 lung
UACC-62 melanoma = tested on: UACC-62 melanoma
SF-539 CNS = tested on: SF-539 CNS
NCI/ADR-RES ovarian = tested on: NCI/ADR-RES ovarian
LOX IMVI melanoma = tested on: LOX IMVI melanoma
MDA-N = tested on: MDA-N
786-0 renal = tested on: 786-0 renal
HCC-2998 colon = tested on: HCC-2998 colon
OVCAR-3 ovarian = tested on: OVCAR-3 ovarian
MCF7 breast = tested on: MCF7 breast
OVCAR-5 ovarian = tested on: OVCAR-5 ovarian
NCI-H226 lung = tested on: NCI-H226 lung
RPMI-8226 leukemia = tested on: RPMI-8226 leukemia
DU-145 prostate = tested on: DU-145 prostate
SNB-19 CNS = tested on: SNB-19 CNS
HCT-116 colon = tested on: HCT-116 colon
SK-OV-3 ovarian = tested on: SK-OV-3 ovarian
KM12 colon = tested on: KM12 colon
SF-268 CNS = tested on: SF-268 CNS
HT29 colon = tested on: HT29 colon
SNB-75 CNS = tested on: SNB-75 CNS
SK-MEL-5 melanoma = tested on: SK-MEL-5 melanoma
ACHN renal = tested on: ACHN renal
SF-295 CNS = tested on: SF-295 CNS
HOP-92 NSCLC = tested on: HOP-92 NSCLC
HOP-62 NSCLC = tested on: HOP-62 NSCLC

Structure (SMILES): Cn1c(=O)n2c(=O)n(C)c(=O)n2c1=O
- TGI (CAKI-1 renal): > 100 µM
- TGI (EKVX NSCLC): > 100 µM
- TGI (SK-MEL-2 melanoma): > 100 µM
- TGI (A549 NSCLC): > 100 µM
- TGI (TK-10 renal): > 100 µM
- TGI (SK-MEL-28 melanoma): > 100 µM
- TGI (M14 melanoma): > 100 µM
- TGI (MALME-3M melanoma): > 100 µM
- TGI (RXF 393 renal): > 100 µM
- TGI (NCI-H522 lung): > 100 µM
- TGI (UACC-257 melanoma): > 100 µM
- TGI (PC-3 prostate): > 100 µM
- TGI (SW-620 colon): > 100 µM
- TGI (K-562 leukemia): > 100 µM
- TGI (U251 CNS): > 100 µM
- TGI (BT-549 breast): > 100 µM
- TGI (NCI-H460 lung): > 100 µM
- TGI (IGROV1 ovarian): > 100 µM
- TGI (SR leukemia): > 100 µM
- TGI (SN12C renal): > 100 µM
- TGI (HS 578T breast): > 100 µM
- TGI (HL-60(TB) leukemia): > 100 µM
- TGI (OVCAR-8 ovarian): > 100 µM
- TGI (MOLT-4 leukemia): > 100 µM
- TGI (OVCAR-4 ovarian): > 100 µM
- TGI (MDA-MB-435): > 100 µM
- TGI (CCRF-CEM leukemia): > 100 µM
- TGI (MDA-MB-231 breast): > 100 µM
- TGI (HCT-15 colon): > 100 µM
- TGI (UO-31 renal): > 100 µM
- TGI (A498 renal): > 100 µM
- TGI (COLO 205 colon): > 100 µM
- TGI (T-47D breast): > 100 µM
- TGI (NCI-H23 lung): > 100 µM
- TGI (UACC-62 melanoma): > 100 µM
- TGI (SF-539 CNS): > 100 µM
- TGI (NCI/ADR-RES ovarian): > 100 µM
- TGI (LOX IMVI melanoma): > 100 µM
- TGI (MDA-N): > 100 µM
- TGI (786-0 renal): > 100 µM
- TGI (HCC-2998 colon): > 100 µM
- TGI (OVCAR-3 ovarian): > 100 µM
- TGI (MCF7 breast): > 100 µM
- TGI (OVCAR-5 ovarian): > 100 µM
- TGI (NCI-H226 lung): > 100 µM
- TGI (RPMI-8226 leukemia): > 100 µM
- TGI (DU-145 prostate): > 100 µM
- TGI (SNB-19 CNS): > 100 µM
- TGI (HCT-116 colon): > 100 µM
- TGI (SK-OV-3 ovarian): > 100 µM
- TGI (KM12 colon): > 100 µM
- TGI (SF-268 CNS): > 100 µM
- TGI (HT29 colon): > 100 µM
- TGI (SNB-75 CNS): > 100 µM
- TGI (SK-MEL-5 melanoma): > 100 µM

Structure (SMILES): CC(=O)OCCOCn1cc(C=O)c2ccccc21
- TGI (CAKI-1 renal): > 100 µM
- TGI (EKVX NSCLC): > 100 µM
- TGI (SK-MEL-2 melanoma): > 100 µM
- TGI (A549 NSCLC): > 100 µM
- TGI (TK-10 renal): > 100 µM
- TGI (SK-MEL-28 melanoma): > 100 µM
- TGI (ACHN renal): > 100 µM
- TGI (M14 melanoma): > 100 µM
- TGI (MALME-3M melanoma): > 100 µM
- TGI (RXF 393 renal): > 100 µM
- TGI (NCI-H522 lung): > 100 µM
- TGI (UACC-257 melanoma): > 100 µM
- TGI (PC-3 prostate): > 100 µM
- TGI (SW-620 colon): > 100 µM
- TGI (SF-295 CNS): > 100 µM
- TGI (K-562 leukemia): > 100 µM
- TGI (U251 CNS): > 100 µM
- TGI (BT-549 breast): > 100 µM
- TGI (NCI-H460 lung): > 100 µM
- TGI (IGROV1 ovarian): > 100 µM
- TGI (SR leukemia): > 100 µM
- TGI (SN12C renal): > 100 µM
- TGI (HS 578T breast): > 100 µM
- TGI (HL-60(TB) leukemia): > 100 µM
- TGI (OVCAR-8 ovarian): > 100 µM
- TGI (MOLT-4 leukemia): > 100 µM
- TGI (MDA-MB-435): > 100 µM
- TGI (CCRF-CEM leukemia): > 100 µM
- TGI (MDA-MB-231 breast): > 100 µM
- TGI (HCT-15 colon): > 100 µM
- TGI (UO-31 renal): > 100 µM
- TGI (A498 renal): 3.89 µM
- TGI (COLO 205 colon): > 100 µM
- TGI (T-47D breast): > 100 µM
- TGI (NCI-H23 lung): > 100 µM
- TGI (HOP-92 NSCLC): > 100 µM
- TGI (UACC-62 melanoma): > 100 µM
- TGI (SF-539 CNS): > 100 µM
- TGI (HOP-62 NSCLC): > 100 µM
- TGI (NCI/ADR-RES ovarian): > 100 µM
- TGI (LOX IMVI melanoma): > 100 µM
- TGI (MDA-N): > 100 µM
- TGI (786-0 renal): > 100 µM
- TGI (HCC-2998 colon): > 100 µM
- TGI (OVCAR-3 ovarian): > 100 µM
- TGI (MCF7 breast): > 100 µM
- TGI (OVCAR-5 ovarian): > 100 µM
- TGI (RPMI-8226 leukemia): > 100 µM
- TGI (DU-145 prostate): > 100 µM
- TGI (SNB-19 CNS): > 100 µM
- TGI (HCT-116 colon): > 100 µM
- TGI (SK-OV-3 ovarian): > 100 µM
- TGI (KM12 colon): > 100 µM
- TGI (SF-268 CNS): > 100 µM
- TGI (HT29 colon): > 100 µM
- TGI (SNB-75 CNS): > 100 µM
- TGI (SK-MEL-5 melanoma): > 100 µM

Structure (SMILES): CC(C)(C)c1ccc(-n2c3nc(=O)n(-c4ccccc4C(F)(F)F)c(=O)c-3cc3ccccc32)cc1
- TGI (CAKI-1 renal): 66.8 µM
- TGI (EKVX NSCLC): 64.9 µM
- TGI (SK-MEL-2 melanoma): 30.8 µM
- TGI (A549 NSCLC): > 100 µM
- TGI (TK-10 renal): > 100 µM
- TGI (SK-MEL-28 melanoma): 23.5 µM
- TGI (ACHN renal): 60 µM
- TGI (M14 melanoma): 32.3 µM
- TGI (RXF 393 renal): 51.7 µM
- TGI (NCI-H522 lung): 45.4 µM
- TGI (UACC-257 melanoma): 48 µM
- TGI (PC-3 prostate): 51 µM
- TGI (SW-620 colon): 62.8 µM
- TGI (SF-295 CNS): 60.5 µM
- TGI (K-562 leukemia): 61.7 µM
- TGI (U251 CNS): 29.6 µM
- TGI (BT-549 breast): > 100 µM
- TGI (NCI-H460 lung): 16 µM
- TGI (IGROV1 ovarian): > 100 µM
- TGI (SR leukemia): 43.6 µM
- TGI (SN12C renal): 59.1 µM
- TGI (HS 578T breast): 68.1 µM
- TGI (HL-60(TB) leukemia): 36.1 µM
- TGI (OVCAR-8 ovarian): 84.6 µM
- TGI (MOLT-4 leukemia): 53 µM
- TGI (OVCAR-4 ovarian): > 100 µM
- TGI (MDA-MB-435): 35.6 µM
- TGI (CCRF-CEM leukemia): 41.9 µM
- TGI (MDA-MB-231 breast): 63 µM
- TGI (HCT-15 colon): 31.3 µM
- TGI (UO-31 renal): > 100 µM
- TGI (A498 renal): 76.3 µM
- TGI (COLO 205 colon): 43.7 µM
- TGI (T-47D breast): > 100 µM
- TGI (NCI-H23 lung): > 100 µM
- TGI (HOP-92 NSCLC): 51.7 µM
- TGI (UACC-62 melanoma): 33.8 µM
- TGI (SF-539 CNS): 63.4 µM
- TGI (HOP-62 NSCLC): 40.3 µM
- TGI (NCI/ADR-RES ovarian): 89.8 µM
- TGI (LOX IMVI melanoma): 28.6 µM
- TGI (MDA-N): 74.8 µM
- TGI (786-0 renal): > 100 µM
- TGI (HCC-2998 colon): 28.4 µM
- TGI (OVCAR-3 ovarian): 31.4 µM
- TGI (MCF7 breast): 72.9 µM
- TGI (OVCAR-5 ovarian): 55.2 µM
- TGI (NCI-H226 lung): 60.8 µM
- TGI (DU-145 prostate): > 100 µM
- TGI (SNB-19 CNS): > 100 µM
- TGI (HCT-116 colon): 25.1 µM
- TGI (KM12 colon): 37.3 µM
- TGI (SF-268 CNS): > 100 µM
- TGI (HT29 colon): 37.5 µM
- TGI (SNB-75 CNS): 71.3 µM
- TGI (SK-MEL-5 melanoma): 29 µM
